The values below come from US4997850A, “Treating agent for osteroarthritis” (Kureha Kagaku Kogyo Kabushiki Kaisha, priority 1989, dated 1991).

Structures can show the parent of a compound that is named as a salt.

Broadly, the LD50 is the dose at which mortality reaches 50%. A low value points to a more toxic substance.

Data set [1] can be described thus: Acute toxicity (LD50) of further compounds, determined in the same manner as ACP. The data set is classed as in vivo. To be noted: same manner as ACP (oral or subcutaneous, mice and rats). As for the experimental part: (§1) For oral administration, a suspension of ACP dispersed in an aqueous solution of 0.5% methylcellulose and 0.4% Tween 80 (nonionic surfactant, manufactured by TOKYO KASEI, Co., Ltd.) was prepared and administered to the animals via a stomach sonde. For subcutaneous administration, a suspension of ACP dispersed in an aqueous physiological saline solution containing 0.5% of carboxymethyl cellulose sodium (hereinafter referred to as "CMC") was prepared and injected to the animals with a syringe.
Further, the acute toxicities (LD50) of […]

The subject of data set [2] is IL-1 release from human monocyte. The data set is described as follows: Inhibition of IL-1 (IL-1α and IL-1β) release from human monocyte. To be noted: LPS 10 μg/ml, 42 hours; for inhibition of IL-1 release: 3.3 μM; for minimal effective concentration: Homo sapiens, Monocyte, read-out: concentration at which the release of IL-1 is significantly inhibited. Format: cell-based. As for the experimental part: Monocyte were isolated from human venous blood by density-gradient centrifugation using a Ficoll-paque solution and obtained the cells having a purity of not less than 95% by purifying with a monocyte-separating plate. After dispersing the cells in a medium, RPMI 1640, containing 10% of FBS, the monocyte were inoculated in a culture dish in a ratio of 10^6 cells/3 ml/well and cultured under an atmosphere containing 5% CO2 at 37° C. for 30 minutes. Then, each 15 μl of DMSO solution of one of ACP, PAL and PAC was added to each well (a final DMSO concentration of 0.5%) and 30 minutes later a lipopolysaccharide (hereinafter referred to as "LPS"), a substance to stimulate IL-1 production, was added at a final LPS concentration of 10 μg/ml and they were cultured for 42 hours. Then, the reacted culture medium was recovered and accompanied cells with the medium were separated by centrifugation and obtained the supernatant free of cell. IL-1α and IL-1β released from the cells were measured by ELISA method in the same manner as in item (i) above.

Data set [3] relates to proteoglycan (PG) release under IL-1α. Kind of data set: Proteoglycan (PG) release from prelabelled cultured cartilage matrix with addition of IL-1α. Format: cell-based. Conditions: for inhibition of PG release under IL-1α: 20 units of IL-1α. As to the method:
Further, to a cultured cartilage matrix, in which PG is prelabelled in advance with 1 μCi of Na2^35 SO4, 20 units of IL-1α was added to each group including control group and 10 μM of PAL, 100 μM of PAL or 10 μM of ACP was added to each test group and studied the effect of each compound to the PG release from the cells.

Data set [4] can be described thus: Acute toxicity (LD50) of ACP in mice. The data set is classed as in vivo. To be noted: for LD50 at 168 h: in vivo, male; for LD50: female, 10080 min. As for the experimental part:
as §1

The nature of data set [5]: Acute toxicity (LD50) of ACP in rats. To be noted: for LD50 at 168 h: in vivo, male; for LD50: female, 10080 min. Format: in vivo. As to the method: as §1
Data set [6] concerns IL-1α production in human synovial cells. The data set is described as follows: Inhibition of IL-1α production in human synovial cells. The data set is classed as cell-based. Conditions: TPA and A 23187 stimulation, 40 hours. As for the experimental part: (§2) Human synovial membrane obtained at an operation was treated with collagenase to obtain synovial cells, which were subcultured several times and inoculated on a 12-well culture dish. On reaching to confluence, the cells were provided to the test described below. The synovial cells produce IL-1 but release only a little amount and accordingly are appropriate cells to study an inhibition or an acceleration of IL-1 intracellular production.
(§3) Each DMSO (dimethylsulfoxide) solution containing one of ACP, PAL and PAC separately in a concentration of 400 times that of the final test and DMSO solution not containing any of the compound as a control, were diluted to 40 times in its volume with a medium containing fetal bovine serum (hereinafter referred to as "FBS") [Ham Medium]. 100 μl of the diluted solution was added to each well and further, 800 μl of the medium [Ham] was added to each well. […] The concentration of TPA and the ionophore in the medium were adjusted so that their final concentration in the well became 0.1 μg/ml and 0.2 μg/ml, respectively and a production of IL-1 was stimulated. Final volume of the liquid (medium) per well was 1 ml/well. After 40 hours of culture, liquid portion was removed from each well and 1 ml of a Ham medium was added to the remaining cells in each well. Freeze-thawing was repeated on the medium containing the cells several times to destroy all the cells in the medium and supernatants containing intracellular substances were obtained by centrifugation. IL-1α and IL-1β in the supernatant were determined by ELISA method using a prescribed enzyme-antibody-complex (manufactured by OHTSUKA SEIYAKU, Co., Ltd.) as intracellular IL-1s. [Refer to ENSHO, vol.

Data set [7] concerns IL-1β production in human synovial cells. The data set is described as follows: Inhibition of IL-1β production in human synovial cells. The data set is classed as cell-based. To be noted: TPA and A 23187 stimulation, 40 hours. As to the method: as §2, §3
In data set [8] the test system is IL-1 release from cultured cartilage cells. The data set is described as follows: Inhibition of IL-1 release from cultured cartilage cells. The data set is classed as cell-based, rabbit. Conditions: 3.3 μM; TPA and A 23187 stimulation, 24 hours. As for the experimental part: Cartilages were aseptically taken out from knee and shoulder joints of young rabbit, treated with a Ham medium containing 0.2% collagenase and separated each other into single cells. After washed two times with a Ham medium containing 10% FBS, the cells were dispersed into the Ham medium containing 10% FBS at a concentration of 10^5 cells/ml. […] After 24 hours of cultivation, IL-1 released into each of the supernatants was measured by a bioassay applying an incorporated amount of ^3 H-thymidine (^3 H-TdR) as an index. […] In the Figure, "Intact" means a case TPA and the ionophore were not added and accordingly no stimulation of IL-1 release was given.

The test system of data set [9] is proteoglycan (PG) in cultured cartilage cells. Kind of data set: Synthesis, release and remaining amount of proteoglycan (PG) in cultured cartilage cells. To be noted: for effect on PG synthesis / inhibition of PG release: PAL 1 to 10 μM, PAC 10 to 100 μM; for effect on PG synthesis: 24 hours; for inhibition of PG release: control release 100%; for remaining amount of PG in the matrix: PAL between 1 and 3.3 μM, PAC between 10 and 100 μM. The data set is classed as cell-based, rat. As to the method: Costal cartilage was aseptically taken out from male SD rats of 4 weeks age, enzymatically treated to separate it into single cells, then inoculated into a 12-well culture dish and cultured under an atmosphere containing 5% CO2 at 37° C. After the chondrocytes had been grown to confluence, 1 to 10 μM of PAL or 10 to 100 μM of PAC was added and three hours later, 2 μCi of Na2^35 SO4 was further added to each well. Twenty four hours later, the synthesis amount in, release amount from and remaining amount of PG in the matrix were determined using amount of ^35 S as an index. […] In the Figures, the PG release in the control was defined as 100%. […] In FIGS. 4(a), 4(b) and 4(c), the released amount of PG means the amount representing the PG degraded in and released from cartilage matrixes, which was calculated on a basis of ^35 S in the culture medium. The remaining amount of PG means the PG not degraded in the matrixes and was also calculated in the same way as above. Sum of the released and the remaining amounts of PG is thought to be a synthesized PG.

Another data set concerns leukocyte migration. Conditions: cited from earlier work.
The next data set deals with granuloma proliferation. Conditions: cited from earlier work.
The subject of a further data set is adjuvant arthritis. To be noted: in vivo; cited from earlier work.
The conditions of data set [10]: in vivo; cited from earlier work.
A short description of data set [11]: Acute toxicity (LD50) of PAC in male mice. To be noted: intraperitoneal. The data set is classed as in vivo.
A short description of data set [12]: Acute toxicity (LD50) of PAL in female Jcl:ICR mice. Conditions: mouse, in vivo. As to the method:
For oral administration, a suspension of PAL dispersed in an aqueous solution of 0.2% CMC was prepared (a part of PAL was dissolved in the solution) and administered to the animals via a stomach sonde. For intraperitoneal administration, a suspension of PAL dispersed in an aqueous physiological saline solution was prepared (a part of PAL was dissolved in the solution) and injected to the animals with a syringe.

Turning to `CCCCCCCCCCCC(=O)Oc1ccc(C(OC(=O)CCCCCCCCCCC)OC(=O)CCCCCCCCCCC)cc1OC(=O)CCCCCCCCCCC` [3,4-di-n-dodecanoyloxybenzylidene di-n-dodecanoate], in data set [1], the “acute toxicities (LD50), compared with ACP” value is reported as “approximately same values”. Besides, in [2], the “inhibition of IL-1 release” value is recorded as “significantly inhibit”. In addition, in data set [3] (10 μM), the “inhibition of PG release under IL-1α” value is recorded as “inhibited the release amount of PG”.
For `CCCCCCCCCCCCCCCCCC(=O)Oc1ccc(C(OC(=O)CCCCCCCCCCCCCCCCC)OC(=O)CCCCCCCCCCCCCCCCC)cc1OC(=O)CCCCCCCCCCCCCCCCC` [3,4-di-n-octadecanoyloxybenzylidene di-n-octadecanoate] the same measures were “approximately same values”, “significantly inhibit” and “inhibited the release amount of PG”.
For `CCC(=O)Oc1ccc(C(OC(=O)CC)OC(=O)CC)cc1OC(=O)CC` [3,4-di-n-propionyloxybenzylidene di-n-propionate], in that order: “approximately same values”, “significantly inhibit” and “inhibited the release amount of PG”.
For `O=C(Oc1ccc(C(OC(=O)c2ccccc2)OC(=O)c2ccccc2)cc1OC(=O)c1ccccc1)c1ccccc1` [3,4-dibenzoyloxybenzylidene dibenzoate] the same measures were “approximately same values”, “significantly inhibit” and “inhibited the release amount of PG”.
Take `CC(=O)Oc1ccc(C(OC(C)=O)OC(C)=O)cc1OC(C)=O` [ACP, 3,4-diacetoxybenzylidene diacetate]: the LD50 at 168 h was greater than 4000 mg/kg in [4] (sc, subcutaneous, Jcl:ICR mouse); greater than 5000 mg/kg in data set [4] (oral, CD-1 mouse); greater than 4000 mg/kg in [5] (sc, subcutaneous, Jcl:Wistar rat); greater than 5000 mg/kg in data set [5] (oral, Sprague-Dawley rat). For the same compound, the LD50 in data set [4] (oral, CD-1 mouse) was greater than 5000 mg/kg; in data set [4] (subcutaneous, Jcl:ICR mouse), greater than 4000 mg/kg; in data set [5] (oral, Sprague-Dawley rat), greater than 5000 mg/kg; in [5] (subcutaneous, Jcl:Wistar rat) it was greater than 4000 mg/kg. Further, the “inhibiting activity of IL-1α production” value in data set [6] (10 μM) is “strong inhibiting activity”. In addition, the “inhibiting activity of IL-1β production” value in [7] (10 μM) was “strong inhibiting activity”. In data set [2], the minimal effective concentration turned out to be 0.67 µM. For the same compound, the “inhibition of IL-1 release from cartilage cells” value in [8] is on record as “inhibit the release of IL-1”. Further, the “effect on PG synthesis, release and remaining amount (ACP)” value in [9] (compared with PAL and PAC, concentration not given) was “effect having similar tendency”. In addition, the “inhibition of PG release under IL-1α” value in data set [3] (10 μM) is “inhibited the release amount”. Further, in the data set with leukocyte migration, the “suppressing activity of leukocyte migration” value is “suppressing activity”. Further, the “suppressing activity of granuloma proliferation” value with granuloma proliferation is reported as “suppressing activity”. For the same compound, the “suppressing activity of adjuvant arthritis” value in the data set with adjuvant arthritis is “suppressing activity”. Further, the “toxicity to mammals including human” value in [10] is listed as “very low toxic”.
Consider `O=C(O)c1ccc(O)c(O)c1` [PAC, 3,4-dihydroxybenzoic acid], for which, in [11] (mouse, in vivo, ip, observed 8 days), the LD50 at 192 h is no less than 400 mg/kg. For the same compound, the “inhibiting activity of IL-1α production” value in data set [6] (33 μM) is recorded as “inhibiting activity of IL-1α only”. Moreover, the “inhibiting activity of IL-1β production” value in data set [7] (33 μM) was “inhibiting activity of IL-1α only”. For the same compound, the “inhibition of IL-1 release from cartilage cells” value in [8] is on record as “inhibit the release of IL-1”. In data set [9], the “effect on PG synthesis” value is “no effect”, the “inhibition of PG release” value is “exhibited inhibiting activities on the PG release” and the “remaining amount of PG in the matrix” value was “increased in proportion to the adding amount”. In [3] (concentration not given), the “inhibiting activity on PG release (further compounds)” value is on record as “same effects”.
`O=Cc1ccc(O)c(O)c1` [PAL, 3,4-dihydroxybenzaldehyde]: the LD50 at 168 h in data set [12] (ip, intraperitoneal) came out at 404 mg/kg. In addition, the LD50 at 168 h in [12] (oral) was found to be 1500 mg/kg. Moreover, the “inhibiting activity of IL-1α production” value in [6] (33 μM) was “strong inhibiting activity”. Moreover, the “inhibiting activity of IL-1β production” value in data set [7] (33 μM) is “strong inhibiting activity”. In [2], the minimal effective concentration is 0.33 µM. Moreover, the “inhibition of IL-1 release from cartilage cells” value in [8] is “inhibit the release of IL-1”. In addition, in data set [9], the “effect on PG synthesis” value is “no effect”, the “inhibition of PG release” value is recorded as “exhibited inhibiting activities on the PG release” and the “remaining amount of PG in the matrix” value was “increased in proportion to the adding amount”. Also, the “inhibition of PG release under IL-1α” value in data set [3] (PAL 10 μM and 100 μM) is on record as “inhibited the release amount proportionally to the amount added”. In the data set on leukocyte migration, the “suppressing activity of leukocyte migration” value is given as “suppressing activity”. For the same compound, the “suppressing activity of granuloma proliferation” value with granuloma proliferation was “suppressing activity”. Besides, the “suppressing activity of adjuvant arthritis” value in the data set with adjuvant arthritis is given as “suppressing activity”. Besides, the “toxicity to mammals including human” value in [10] is reported as “very low toxic”.
On to `O=C(O)c1ccc(O)c(O)c1` [sodium salt of PAC], for which, in data set [11] (level relative to PAC (not less than 400 mg/kg)), the “LD50 value, compared with PAC” value is “same level of LD50 value”.
